Measured values taken from patent US10448639B2, “Fungicidal pyrazoles” (FMC CORPORATION, priority 2009, dated 2019).
Marks after values point to notes of the source that are not given here.

Assays:
Botrytis cinerea = assay: Test B: tomato Botrytis, preventive spray on tomato seedlings, visual disease rating; conditions: tomato Botrytis, preventive spray; for Test B rating (% disease control): 100 = 100% disease control, 0 = no control
Septoria tritici = assay: Test G: wheat leaf blotch, preventive spray on wheat seedlings, visual disease rating; conditions: wheat leaf blotch, preventive spray; for Test G rating (% disease control): 100 = 100% disease control, 0 = no control
Septoria nodorum = assay: Test F: Septoria glume blotch, preventive spray on wheat seedlings, visual disease rating; conditions: preventive spray; for Test F rating (% disease control): Septoria glume blotch on wheat, 100 = 100% disease control, 0 = no control
[1] = test system: Puccinia recondita f. sp. tritici; assay: Test I: wheat leaf rust, preventive spray on wheat seedlings, visual disease rating; conditions: wheat leaf rust, preventive spray; for Test I rating (% disease control): 100 = 100% disease control, 0 = no control
Alternaria solani = assay: Test C: tomato early blight, preventive spray on tomato seedlings, visual disease rating; conditions: tomato early blight, preventive spray; for Test C rating (% disease control): 100 = 100% disease control, 0 = no control
[2] = test system: Puccinia recondita f. sp. tritici; assay: Test H: wheat leaf rust, curative spray on inoculated wheat seedlings, visual disease rating; conditions: wheat leaf rust, curative spray; for Test H rating (% disease control): 100 = 100% disease control, 0 = no control
[3] = test system: Erysiphe graminis f sp. tritici; assay: Test J: wheat powdery mildew, preventive spray on wheat seedlings, visual disease rating; conditions: wheat powdery mildew, preventive spray; for Test J rating (% disease control): 100 = 100% disease control, 0 = no control
[4] = rating marked with asterisk (different test condition, key not given)

## COc1ccc(Nc2c(-c3c(F)cc(F)cc3F)c(C)nn2C)cn1 [compound 94]
Botrytis cinerea
  Test B rating (% disease control): 99%
Septoria tritici
  Test G rating (% disease control): 98%
Septoria nodorum
  Test F rating (% disease control): 29%
[1]
  Test I rating (% disease control): 9%
Alternaria solani
  Test C rating (% disease control): 70%
[2]
  Test H rating (% disease control): 0%
[3]
  Test J rating (% disease control): 0%

## COc1cc(F)c(-c2c(C)nn(C)c2Nc2ccc(OC)nc2)c(F)c1 [compound 95]
Botrytis cinerea
  Test B rating (% disease control): 99%
Septoria tritici
  Test G rating (% disease control): 97%
Septoria nodorum
  Test F rating (% disease control): 0%
[1]
  Test I rating (% disease control): 0%
Alternaria solani
  Test C rating (% disease control): 16%
[2]
  Test H rating (% disease control): 0%
[3]
  Test J rating (% disease control): 0%

## Cc1nn(C)c(Oc2ccc(C#N)cc2F)c1-c1c(F)cc(F)cc1F [compound 96]
Botrytis cinerea
  Test B rating (% disease control): 99%
Septoria tritici
  Test G rating (% disease control): 100%
Septoria nodorum
  Test F rating (% disease control): 99%
[1]
  Test I rating (% disease control): 99%
Alternaria solani
  Test C rating (% disease control): 99%
[2]
  Test H rating (% disease control): 9%
[3]
  Test J rating (% disease control): 100%

## Cc1cc(F)ccc1-c1c(C)nn(C)c1Oc1c(F)cc(C#N)cc1F [compound 97]
Botrytis cinerea
  Test B rating (% disease control): 100%
Septoria tritici
  Test G rating (% disease control): 100%
Septoria nodorum
  Test F rating (% disease control): 95%
[1]
  Test I rating (% disease control): 99%
Alternaria solani
  Test C rating (% disease control): 99%
[2]
  Test H rating (% disease control): 0%
[3]
  Test J rating (% disease control): 99%

## Cc1nn(C)c(Oc2ccc(C#N)cc2Cl)c1-c1c(F)cc(F)cc1F [compound 98]
Botrytis cinerea
  Test B rating (% disease control): 100%
Septoria tritici
  Test G rating (% disease control): 100%
Septoria nodorum
  Test F rating (% disease control): 69%
[1]
  Test I rating (% disease control): 99%
Alternaria solani
  Test C rating (% disease control): 17%
[2]
  Test H rating (% disease control): 26%
[3]
  Test J rating (% disease control): 99%

## Cc1nn(C)c(Oc2cc(F)c(C#N)cc2F)c1-c1c(F)cc(F)cc1F [compound 99]
Botrytis cinerea
  Test B rating (% disease control): 100%
Septoria tritici
  Test G rating (% disease control): 99%
Septoria nodorum
  Test F rating (% disease control): 100%
[1]
  Test I rating (% disease control): 100%
Alternaria solani
  Test C rating (% disease control): 99%
[2]
  Test H rating (% disease control): 40%
[3]
  Test J rating (% disease control): 100%

## COc1cc(OC)c(Nc2c(-c3c(F)cc(F)cc3F)c(C)nn2C)cc1Cl [compound 100]
Botrytis cinerea
  Test B rating (% disease control): 38%
Septoria tritici
  Test G rating (% disease control): 48%
Septoria nodorum
  Test F rating (% disease control): 0%
[1]
  Test I rating (% disease control): 41%
Alternaria solani
  Test C rating (% disease control): 0%
[2]
  Test H rating (% disease control): 0%
[3]
  Test J rating (% disease control): 0%

## Cc1nn(C)c(Nc2ncc(Cl)cc2Cl)c1-c1c(F)cc(F)cc1F [compound 101]
Botrytis cinerea
  Test B rating (% disease control): 100%
Septoria tritici
  Test G rating (% disease control): 100%
Septoria nodorum
  Test F rating (% disease control): 100%
[1]
  Test I rating (% disease control): 99%
Alternaria solani
  Test C rating (% disease control): 99%
[2]
  Test H rating (% disease control): 99%
[3]
  Test J rating (% disease control): 100%

## COc1cc(F)c(-c2c(C)nn(C)c2Nc2ncc(Cl)cc2Cl)c(F)c1 [compound 102]
Botrytis cinerea
  Test B rating (% disease control): 100%
Septoria tritici
  Test G rating (% disease control): 99%
Septoria nodorum
  Test F rating (% disease control): 98%
[1]
  Test I rating (% disease control): 100%
Alternaria solani
  Test C rating (% disease control): 100%
[2]
  Test H rating (% disease control): 0%
[3]
  Test J rating (% disease control): 98%

## Cc1nn(C)c(Nc2ccc(F)cc2F)c1-c1c(F)cc(O)cc1F [compound 103]
Botrytis cinerea
  Test B rating (% disease control): 100%
Septoria tritici
  Test G rating (% disease control): 95%
Septoria nodorum
  Test F rating (% disease control): 0%
[1]
  Test I rating (% disease control): 91%
Alternaria solani
  Test C rating (% disease control): 64%
[2]
  Test H rating (% disease control): 0%
[3]
  Test J rating (% disease control): 0%

## COc1ccc(-c2c(C)nn(C)c2Nc2c(F)cc(F)cc2F)c(Cl)c1 [compound 104]
Botrytis cinerea
  Test B rating (% disease control): 100%
Septoria tritici
  Test G rating (% disease control): 99%
Septoria nodorum
  Test F rating (% disease control): 97%
[1]
  Test I rating (% disease control): 99%
Alternaria solani
  Test C rating (% disease control): 99%
[2]
  Test H rating (% disease control): 99%
[3]
  Test J rating (% disease control): 100%

## Cc1nn(C)c(Nc2ccc(F)cc2F)c1-c1c(F)cc(OS(=O)(=O)C(F)(F)F)cc1F [compound 105]
Botrytis cinerea
  Test B rating (% disease control): 23%
Septoria tritici
  Test G rating (% disease control): 73%
Septoria nodorum
  Test F rating (% disease control): 0%
[1]
  Test I rating (% disease control): 0%
Alternaria solani
  Test C rating (% disease control): 0%
[2]
  Test H rating (% disease control): 9%
[3]
  Test J rating (% disease control): 72%

## Cc1nn(C)c(Nc2ccc(F)cc2F)c1-c1c(F)cc(C#N)cc1F [compound 106]
Botrytis cinerea
  Test B rating (% disease control): 100%
Septoria tritici
  Test G rating (% disease control): 100%
Septoria nodorum
  Test F rating (% disease control): 90%
[1]
  Test I rating (% disease control): 99%
Alternaria solani
  Test C rating (% disease control): 99%
[2]
  Test H rating (% disease control): 82%
[3]
  Test J rating (% disease control): 100%

## Cc1nn(C)c(Nc2ccc(Cl)nc2Cl)c1-c1ccc(F)cc1Cl [compound 107]
Botrytis cinerea; [4]
  Test B rating (% disease control), value marked *: 99* %
Septoria tritici; [4]
  Test G rating (% disease control), value marked *: 99* %
Septoria nodorum; Septoria glume blotch, rating marked with asterisk (different test condition, key not given)
  Test F rating (% disease control), value marked *: 0* %
[1]; [4]
  Test I rating (% disease control), value marked *: 24* %
Alternaria solani; [4]
  Test C rating (% disease control), value marked *: 0* %
[2]; [4]
  Test H rating (% disease control), value marked *: 8* %
[3]; [4]
  Test J rating (% disease control), value marked *: 0* %

## Cn1nc(C2CC2)c(-c2ccc(F)cc2Cl)c1Nc1ccc(F)cc1F [compound 108]
Botrytis cinerea
  Test B rating (% disease control): 97%
Septoria tritici
  Test G rating (% disease control): 98%
Septoria nodorum
  Test F rating (% disease control): 0%
[1]
  Test I rating (% disease control): 16%
Alternaria solani
  Test C rating (% disease control): 0%
[2]
  Test H rating (% disease control): 0%
[3]
  Test J rating (% disease control): 97%

## Cc1nn(C)c(Nc2ncc(F)cc2F)c1-c1c(F)cc(F)cc1F [compound 109]
Botrytis cinerea
  Test B rating (% disease control): 100%
Septoria tritici
  Test G rating (% disease control): 100%
Septoria nodorum
  Test F rating (% disease control): 97%
[1]
  Test I rating (% disease control): 100%
Alternaria solani
  Test C rating (% disease control): 99%
[2]
  Test H rating (% disease control): 99%
[3]
  Test J rating (% disease control): 100%

## Cc1nn(C)c(Nc2ccc(Cl)cc2)c1-c1c(F)cc(C#N)cc1F [compound 110]
Botrytis cinerea
  Test B rating (% disease control): 99%
Septoria tritici
  Test G rating (% disease control): 99%
Septoria nodorum
  Test F rating (% disease control): 98%
[1]
  Test I rating (% disease control): 97%
Alternaria solani
  Test C rating (% disease control): 66%
[2]
  Test H rating (% disease control): 0%
[3]
  Test J rating (% disease control): 94%

## Cc1nn(C)c(Nc2ccc(F)cc2)c1-c1c(F)cc(C#N)cc1F [compound 111]
Botrytis cinerea
  Test B rating (% disease control): 99%
Septoria tritici
  Test G rating (% disease control): 99%
Septoria nodorum
  Test F rating (% disease control): 90%
[1]
  Test I rating (% disease control): 97%
Alternaria solani
  Test C rating (% disease control): 75%
[2]
  Test H rating (% disease control): 0%
[3]
  Test J rating (% disease control): 99%

## Cc1nn(C)c(Nc2ccc(F)cc2Cl)c1-c1c(F)cc(C#N)cc1F [compound 112]
Botrytis cinerea
  Test B rating (% disease control): 100%
Septoria tritici
  Test G rating (% disease control): 99%
Septoria nodorum
  Test F rating (% disease control): 99%
[1]
  Test I rating (% disease control): 100%
Alternaria solani
  Test C rating (% disease control): 98%
[2]
  Test H rating (% disease control): 53%
[3]
  Test J rating (% disease control): 100%

## COc1ccc(Nc2c(-c3c(F)cc(C#N)cc3F)c(C)nn2C)cc1F [compound 113]
Botrytis cinerea
  Test B rating (% disease control): 99%
Septoria tritici
  Test G rating (% disease control): 100%
Septoria nodorum
  Test F rating (% disease control): 0%
[1]
  Test I rating (% disease control): 95%
Alternaria solani
  Test C rating (% disease control): 47%
[2]
  Test H rating (% disease control): 8%
[3]
  Test J rating (% disease control): 48%

## Cc1nn(C)c(Nc2ccc(F)c(F)c2)c1-c1c(F)cc(C#N)cc1F [compound 114]
Botrytis cinerea
  Test B rating (% disease control): 99%
Septoria tritici
  Test G rating (% disease control): 99%
Septoria nodorum
  Test F rating (% disease control): 69%
[1]
  Test I rating (% disease control): 99%
Alternaria solani
  Test C rating (% disease control): 24%
[2]
  Test H rating (% disease control): 8%
[3]
  Test J rating (% disease control): 84%

## Cc1nn(C)c(Nc2cccc(Cl)c2)c1-c1c(F)cc(C#N)cc1F [compound 115]
Botrytis cinerea
  Test B rating (% disease control): 99%
Septoria tritici
  Test G rating (% disease control): 100%
Septoria nodorum
  Test F rating (% disease control): 0%
[1]
  Test I rating (% disease control): 91%
Alternaria solani
  Test C rating (% disease control): 0%
[2]
  Test H rating (% disease control): 0%
[3]
  Test J rating (% disease control): 0%

## Cc1nn(C)c(Oc2cc(F)cc(C#N)c2)c1-c1ccc(F)cc1Cl [compound 116]
Botrytis cinerea
  Test B rating (% disease control): 100%
Septoria tritici
  Test G rating (% disease control): 100%
Septoria nodorum
  Test F rating (% disease control): 73%
[1]
  Test I rating (% disease control): 97%
Alternaria solani
  Test C rating (% disease control): 94%
[2]
  Test H rating (% disease control): 16%
[3]
  Test J rating (% disease control): 99%

## COc1cc(F)c(-c2c(C)nn(C)c2Nc2ccc(C#N)cc2Cl)c(F)c1 [compound 117]
Botrytis cinerea
  Test B rating (% disease control): 99%
Septoria tritici
  Test G rating (% disease control): 100%
Septoria nodorum
  Test F rating (% disease control): 82%
[1]
  Test I rating (% disease control): 98%
Alternaria solani
  Test C rating (% disease control): 97%
[2]
  Test H rating (% disease control): 11%
[3]
  Test J rating (% disease control): 97%
